Data taken from patent US5468756A, “Imidazonaphthyridine derivatives” (Kyowa Hakko Kogyo Co., Ltd., priority 1990, dated 1995).

Assays:
[1] = tested on: carrageenin-induced paw edema; assay: Effect on carrageenin-induced paw edema; assay type: in vivo, male Wistar rats; settings: Rattus norvegicus, 3 hours after carrageenin, read-out: Suppression rate for paw swelling, carrageenin-induced edema; for inhibition in vivo at 100 mg/kg: p.o.; for inhibition in vivo at 50 mg/kg: po, 50 mg/kg P.O.
Protocol: a) Effect on carrageenin-induced paw edema
(§1) Male Wistar rats weighing 150 to 160 g (n=3-5) were used in the experiment. After the right hind paw volume was measured with the plethysmograph (TK-101; Unicom Co., Ltd.), the test compound (25, 50 or 100 mg/kg) was orally administered. After one hour, 0.1 ml of 1% carrageenin (λ-carrageenin; PICNIN-A®, Zushi Kagaku Co., Ltd.) was subcutaneously injected into the right hind paw footpad. Three hours after the injection of carrageenin, the right hind paw volume was measured and the swelling rate was determined by the following equation 1. [formula] Vt: the right hind paw volume measured 3 hours after the injection of carrageenin
(§2) Vo: the right hind paw volume measured prior to the injection of carrageenin
(§3) The suppression rate was calculated by the following equation 2. [formula] Swt: the swelling rate of the group administered with the test compound Swc: the swelling rate of the control group administered with physiological saline solution

[2] = tested on: zymosan-induced paw edema; assay: Effect on zymosan-induced paw edema; assay type: in vivo, male Wistar rats; settings: Rattus norvegicus, po, read-out: Suppression rate for paw swelling, zymosan-induced edema; for inhibition in vivo at 25 mg/kg: 25 mg/kg P.O.
Protocol: as §1, §2, §3
b) Effect on zymosan-induced paw edema
The experiment was carried out in the same manner as in the carrageenin-induced paw edema test except that 1% zymosan (Zymosan A®; Sigma Chemical Co.) was used in place of 1% carrageenin and the right hind paw volume was measured […] the injection of the edema-inducing substance instead of 3 hours. The swelling rate and the suppression rate were calculated by equation 1 and equation 2, respectively.

[3] = tested on: Type III allergic reaction-induced pleurisy; assay: Effect on Type III allergic reaction-induced pleurisy; assay type: in vivo, male Wistar rats; settings: 100 mg/kg orally; rats; 4.5 h after induction of pleurisy
Protocol: c) Effect on Type III allergic reaction-induced pleurisy
1. Preparation of IgG fraction of rabbit anti-egg white albumin (anti-OA)
IgG was purified from rabbit anti-OA serum prepared in advance by the method of Koda et al. [Folia Pharmacol., Japon 66, 237, (1970)] in the following manner.
A saturated solution of ammonium sulfate (half volume of the serum) was added to the anti-OA serum, and the mixture was left for one hour at 4° C. The precipitate was taken by centrifugation (3,000 rpm, 30 min. 4° C.) and dissolved in phosphate buffer of Dulbecco. Then, ammonium sulfate fractionation was carried out three times in the same manner as above, whereby a purified IgG fraction was obtained.
2. Type III allergic reaction-induced pleurisy
Male Wistar rats weighing 225-250 g were pre-bred for several days and fasted overnight prior to the experiment. The test compound (100 mg/kg) was orally administered to the animals, and after 30 minutes, a solution of IgC of rabbit anti-OA (0.2 ml, 5 mg protein/ml) was injected into the pleural cavity of the animals from the right side of thorax under anesthesia with ether. Thirty minutes after the injection of IgG, OA (albumin egg grade III; Sigma Chemical Co.) was intravenously injected into the animals as an inducer of pleurisy. After two hours, Evans Blue (25 mg/kg) was intravenously injected, and four and a half hours after the induction of pleurisy, the animals were killed by bleeding.
Then, an exudate in the pleural cavity was obtained, and the volume of the exudate was measured. The pleural cavity was rinsed with 5 ml of physiological saline and the rinsings were added to the exudate. The number of infiltrated cells in the mixture was counted and the volume of the dye in the mixture was determined by the absorption at 625 nm [Agent Actions., 25, 326 (1988)]. The suppression rates for the volume of the exudate, the number of infiltrated cells and the volume of the dye in the pleural cavity were calculated by the following equation 3. [formula] […]

[4] = tested on: passive Schultz-Dale reaction; assay: Effect on passive Schultz-Dale reaction (broncho-dilative activity), sensitized tracheal strips contracted by antigen; design: species or system male Hartley guinea pigs; settings: guinea pig tracheal zig-zag strips, 37° C., antigen egg white albumin 1 μg/ml; read-out: Passive Schultz-Dale reaction IC50 (concentration of 50% relaxation rate)
Protocol: d) Effect on passive Schultz-Dale reaction (broncho-dilative activity)
Male Hartley guinea pigs weighing 350 to 500 g were passively sensitized by intraperitoneal injection of rabbit anti-OA serum prepared in advance by the method of Koda et al. [Folia Pharmacol., Japon 66, 237, (1970)]. After 24 hours, the guinea pigs were stunned and exsanguinated, and then tracheae were removed. The zig-zag strips of the tracheae were prepared by the method of Emmerson and Mackay [J. Pharm. Pharmacol., 31, 798, (1979)]. The strips were suspended in Krebs-Henseleit solution at 37° C. under aeration of a mixed gas of 95% oxygen and 5% carbon dioxide, and equilibrated for one hour. Then, antigen (egg white albumin) was introduced in the solution (final concentration; 1 μg/ml), and the contraction was measured by isotonictransducer (TD-112s, made by Nihon Kohden K.K., Japan) and recorded on a recorder (Type 3066, made by Yokogawa-Hokushin Denki, K.K. Japan). After the contraction curves reached a plateau, the test compounds were successively added in order to get cumulative concentration-relaxation curves. The concentration of 50% relaxation rate (IC50) was calculated from the regression line, which was obtained from the cumulative concentration-relaxation curves.

[5] = tested on: platelet activating factor (PAF)-induced mortality; assay: Inhibition effect on platelet activating factor (PAF)-induced mortality; assay type: in vivo, male dd mice; settings: Mus musculus, po, PAF 40 μg/kg i.v., 3 h, n = 10, control group survival 0-20%, read-out: Survival rate of test compound-administered group
Protocol: e) Inhibition effect on platelet activating factor (PAF)-induced mortality
The experiment was carried out by a minor modification of a known method [Br. J. Pharmacol., 79, 595 (1983)]. Groups each consisting of 10 male dd mice (weighing 28 to 32 g) were used, and 50 or 100 mg/kg of the test compound or a saline (control) was orally administered. One hour after the administration of test compound, 40 μg/kg of PAF (manufactured by Avanti Polar Lipids Co., Ltd.) was intravenously administered. Three hours after PAF injection, the mortality of the animals was observed.

ddY strain male mice = assay: Acute toxicity (Minimum Lethal Dose); assay type: in vivo
Protocol: The test compound was orally and intraperitoneally administered to ddY strain male mice weighing 20 to 25 g. MLD (Minimum Lethal Dose) was determined by observing the mortality for […] after the administration.

Compound	inhibition in vivo at 100 mg/kg [1]	inhibition in vivo at 100 mg/kg [2]	Suppression rate, number of infiltrated cells in the exudate [3]	Suppression rate, volume of dye in the exudate [3]	Suppression rate, volume of exudate [3]	IC50 [4]	responders at 100 mg/kg [5]	MLD (Minimum Lethal Dose) i.p. (ddY strain male mice)	MLD (Minimum Lethal Dose) p.o. (ddY strain male mice)	inhibition in vivo at 25 mg/kg [2]	inhibition in vivo at 50 mg/kg [1]
CCCCn1c(=O)c2ncn(C)c2c2cccnc21 [Compound 1, 5-(n-Butyl)-1-methyl-1H-imidazo[4,5-c][1,8]naphthyridin-4(5H)-one]	40.1%	38.8%	84.1%	80.3%	100%	12 µM	90%				
CCn1cnc2c3cccnc3n(-c3ccccc3)c(=O)c21 [Compound 8, 3-Ethyl-5-phenyl-3H-imidazo[4,5-c][1,8]naphthyridin-4(5H)-one]	56.1%	64.9%				0.45 µM	70%	> 50 mg/kg	> 50 mg/kg		
CCCn1cnc2c3cccnc3n(-c3ccccc3)c(=O)c21 [Compound 9, 5-Phenyl-3-n-propyl-3H-imidazo[4,5-c][1,8]naphthyridin-4(5H)-one]	52.4%					6.5 µM	100%	> 100 mg/kg	> 100 mg/kg	61.2%	
CC(C)n1cnc2c3cccnc3n(-c3ccccc3)c(=O)c21 [Compound 10, 3-Isopropyl-5-phenyl-3H-imidazo[4,5-c][1,8]naphthyridin-4(5H)-one]	43.1%	53%				6 µM	80%	> 100 mg/kg	> 100 mg/kg		
CCCCn1cnc2c3cccnc3n(-c3ccccc3)c(=O)c21 [Compound 11, 3-n-Butyl-5-phenyl-3H-imidazo[4,5-c][1,8]naphthyridin-4(5H)-one]	56.4%					> 10 µM	100%	> 100 mg/kg	> 200 mg/kg	55.5%	
CC(C)Cn1cnc2c3cccnc3n(-c3ccccc3)c(=O)c21 [Compound 12, 3-Isobutyl-5-phenyl-3H-imidazo[4,5-c][1,8]naphthyridin-4(5H)-one]	48.5%					8.5 µM	100%	> 50 mg/kg	> 200 mg/kg	69.7%	
O=c1c2c(ncn2Cc2ccccc2)c2cccnc2n1-c1ccccc1 [Compound 13, 3-Benzyl-5-phenyl-3H-imidazo[4,5-c][1,8]naphthyridin-4(5H)-one]	58.1%	65.1%				1.3 µM	90%	> 100 mg/kg	> 300 mg/kg		
CC(=O)Cn1cnc2c3cccnc3n(-c3ccccc3)c(=O)c21 [Compound 14, 3-(2-Oxopropyl)-5-phenyl-3H-imidazo[4,5-c][1,8]naphthyridin-4(5H)-one]	44%					5.8 µM	100%	> 100 mg/kg	> 100 mg/kg	53.7%	
O=c1c2c(ncn2CCc2ccccc2)c2cccnc2n1-c1ccccc1 [Compound 15, 3-Phenethyl-5-phenyl-3H-imidazo[4,5-c][1,8]naphthyridin-4(5H)-one]	5.2%					8.1 µM	50%	> 100 mg/kg	> 300 mg/kg	25.7%	
CCCCn1c(=O)c2c(ncn2CCC)c2cccnc21 [Compound 29, 5-n-Butyl-3-n-propyl-3H-imidazo[4,5-c][1,8]naphthyridin-4(5H)-one]	56.1%					0.29 µM	100%	> 100 mg/kg	> 100 mg/kg	21.1%	
CCOCCn1cnc2c3cccnc3n(-c3ccccc3)c(=O)c21 [Compound 31, 3-(Ethoxyethyl)-5-phenyl-3H-imidazo[4,5-c][1,8]naphthyridin-4(5H)-one]	60.6%					0.13 µM	90%	> 100 mg/kg	> 300 mg/kg	57.4%	
C=CCn1cnc2c3cccnc3n(-c3ccccc3)c(=O)c21 [Compound 33, 3-(2-propenyl)-5-phenyl-3H-imidazo[4,5-c][1,8]naphthyridin-4(5H)-one]						0.0071 µM	100%	> 100 mg/kg	> 300 mg/kg	67.3%	67.8%
CC(=O)OCCn1cnc2c3cccnc3n(-c3ccccc3)c(=O)c21 [Compound 34, 3-(2-Acetoxyethyl)-5-phenyl-3H-imidazo[4,5-c][1,8]naphthyridin-4(5H)-one]						0.68 µM	70%	> 100 mg/kg	> 300 mg/kg	41.6%	42.2%
O=c1c2c(ncn2Cc2ccc(F)cc2)c2cccnc2n1-c1ccccc1 [Compound 44, 3-(4-Fluorophenyl)methyl-5-phenyl-3H-imidazo[4,5-c][1,8]naphthyridin-4(5H)-one]	42.8%					6.6 µM	50%	> 50 mg/kg	> 300 mg/kg	63.9%	
